Earlier results as cited in patent US20090029952A1, “UNIQUE COMBINATION OF […] ACID, ETHYLENEDIAMINE DIHYDROIODIDE (EDDI), AND BUFFER FOR USE IN ANIMAL DRINKING WATER” (priority 2007, published 2009).

maximum solubility of aspirin alone in water (alone in water, or in the presence of sodium acetate or sodium diacetate): 0.1 % by weight | solubility in water (water, from chemical handbooks): 0.1%
Compound: CC(=O)Oc1ccccc1C(=O)O [aspirin, acetylsalicylic acid]
